Patent US5059615A, “Antimycotically active cyclopropyl-substituted azolylmethylcarbinols” (Bayer Aktiengesellschaft, priority 1988, dated 1991)
Converted amounts (≈) assume the structure as drawn.

Key:
Torulopsis glabrata = experiment: Antimycotic in vitro activity, serial dilution test (MIC); format: cell-based; conditions: Nakaseomyces glabratus, meat extract-dextrose broth, 28-37° C., 24 to 96 hours, read-out: MIC values in μg/ml of nutrient medium
Procedure: (§1) The in vitro tests were carried out in a serial dilution test using inocula of microorganisms of on average 5×10^4 to 10^5 microorganisms/ml of substrate. The nutrient medium used was b) for yeasts meat extract-dextrose broth. The incubation temperature was 28° C. to 37° C., and the incubation time was 24 to 96 hours with yeasts and 96 hours with dermatophytes and Hyphomycetes.

Candida albicans = experiment: as above; format: cell-based; conditions: for MIC: Candida albicans, meat extract-dextrose broth, 28-37° C., 24 to 96 hours, read-out: MIC values in μg/ml of nutrient medium; for activity compared with the known compounds (A) and (B): serial dilution test, in particular against Candida albicans
Procedure: as §1

[1] = system: Trichophyton mentagrophytes; experiment: as above; format: cell-based; conditions: Trichophyton mentagr., Sabouraud's test medium, 28-37° C., 96 hours, read-out: MIC values in μg/ml of nutrient medium
Procedure: as §1, with “a)” for “b)”, “dermatophytes and Hyphomycetes Sabouraud's test medium” for “yeasts meat extract-dextrose broth.”

Aspergillus fumigatus = experiment: as above; format: cell-based; conditions: Sabouraud's test medium, 28-37° C., 96 hours, read-out: MIC values in μg/ml of nutrient medium
Procedure: as §1, with “a)” for “b)”, “dermatophytes and Hyphomycetes Sabouraud's test medium” for “yeasts meat extract-dextrose broth.”

Candida cells = experiment: Antimycotic in vivo activity (oral) in mouse candidosis; parameters: species or system Mice of the SPF-CF type; conditions: for Action / surviving on the 6th day p.i.: 10-100 mg/kg one hour before and seven hours after infection; for Action: survival on the 6th day p.i.; for surviving on the 6th day p.i.: untreated about 5%; for action (in words) / action compared with the known compounds (C) and (D): mouse candidosis
Procedure: Mice of the SPF-CF type were infected intravenously with 1-2×10^6exponentially growing Candida cells which were suspended in physiological saline solution. One hour before and seven hours after the infection, the animals were treated orally in each case with 10-100 mg/kg of body weight of the preparation. Untreated animals died 3 to 6 days post infection. The survival rate on the 6th day post infection in untreated control animals was about 5%.

[2] = system: Trichophyton mentagrophytes; experiment: Antimycotic in vivo activity (local) in the experimental guinea-pig trichophytosis model; parameters: species or system guinea-pigs of the Pirbright white strain; conditions: 2.5% strength solution
Procedure: White guinea-pigs of the Pirbright white strain were infected on the shaven, non-scarified back using a microconidia and macroconidia suspension of Trichophyton mentagrophytes. The infected animals were treated locally from. The 3rd day 1x daily p.i. using a 2.5% strength solution of the preparation according to the invention (in dimethyl sulphoxide:glycerol=1:4). In untreated animals, the typical picture of dermatophytosis with reddening, scaling and hair loss up to total integumental defect of the infection site developed in the course of 12 days p.i.

Microsporum canis = experiment: Antimycotic in vitro activity, serial dilution test (MIC); format: cell-based; conditions: Sabouraud's test medium, 28-37° C., 96 hours, read-out: MIC values in μg/ml of nutrient medium
Procedure: as §1, with “a)” for “b)”, “dermatophytes and Hyphomycetes Sabouraud's test medium” for “yeasts meat extract-dextrose broth.”

Row | MIC (Torulopsis glabrata) [µg/mL] | MIC (Candida albicans) [µg/mL] | MIC [1] [µg/mL] | MIC (Aspergillus fumigatus) [µg/mL] | MIC (Microsporum canis) [µg/mL] | Compound | Action (Candida cells) | surviving on the 6th day p.i. (Candida cells) [%] | action (in words) (Candida cells) | action compared with the known compounds (C) and (D) (Candida cells) | action (in words) [2] | activity compared with the known compounds (A) and (B) (Candida albicans)
1 | > 64 | > 64 | 32 (≈ 105 µM) | > 64 | – | OC(Cn1cncn1)(Cn1cncn1)c1cccc(Cl)c1 [A, reference compound] | – | – | – | – | – | –
2 | > 64 | 64 (≈ 237 µM) | 64 (≈ 237 µM) | > 64 | – | OC(Cn1cncn1)(Cn1cncn1)c1ccccc1 [B, reference compound] | – | – | – | – | – | –
3 | – | – | – | – | – | N#CC1(C(O)(Cn2cncn2)c2ccc(F)cc2)CC1 (centres unmarked) [I-2, 1-(1-Cyanocyclopropyl)-1-(4-fluorophenyl)-2-(1,2,4-triazol-1-yl)ethanol] | +++++ (very good action = 90% surviving on the 6th day p.i.) | > 80 | good to very good action | better than the compounds (C) and (D) | good action | –
4 | 8 (≈ 27.7 µM) | 2 (≈ 6.93 µM) | 2 (≈ 6.93 µM) | 4 (≈ 13.9 µM) | 4 (≈ 13.9 µM) | N#CC1(C(O)(Cn2cncn2)c2ccc(Cl)cc2)CC1 (centres unmarked) [I-3, 1-(1-Cyanocyclopropyl)-1-(4-chlorophenyl)-2-(1,2,4-triazol-1-yl)ethanol] | +++++ (very good action = 90% surviving on the 6th day p.i.) | > 80 | good to very good action | better than the compounds (C) and (D) | good action | better activity
5 | – | – | – | – | – | N#CC1(C(O)(Cn2cncn2)c2ccc(F)cc2F)CC1 (centres unmarked) [I-4, 1-(1-Cyanocyclopropyl)-1-(2,4-difluorophenyl)-2-(1,2,4-triazol-1-yl)ethanol] | +++++ (very good action = 90% surviving on the 6th day p.i.) | > 80 | good to very good action | better than the compounds (C) and (D) | – | –
6 | 8 (≈ 29.5 µM) | 8 (≈ 29.5 µM) | < 1 | 4 (≈ 14.7 µM) | 4 (≈ 14.7 µM) | N#CC1(C(O)(Cn2ccnc2)c2ccc(F)cc2)CC1 (centres unmarked) [I-5, 1-(1-cyanocyclopropyl)-1-(4-fluorophenyl)-2-(imidazol-1-yl)ethanol] | – | – | – | – | – | better activity
7 | – | – | – | – | – | NC(=O)C1(C(O)(Cn2cncn2)c2ccc(F)cc2)CC1 (centres unmarked) [I-7, 1-(1-Carboxamidocyclopropyl)-1-(4-fluorophenyl)-2-(1,2,4-triazol-1-yl)ethanol] | +++++ (very good action = 90% surviving on the 6th day p.i.) | > 80 | good to very good action | better than the compounds (C) and (D) | – | –
8 | – | – | – | – | – | N#CC1(C(O)(Cn2cncn2)c2ccc(OC(F)(F)F)cc2)CC1 (centres unmarked) [I-9] | +++++ (very good action = 90% surviving on the 6th day p.i.) | > 80 | good to very good action | better than the compounds (C) and (D) | – | –
9 | – | – | – | – | – | N#CC1(C(O)(Cn2cncn2)c2ccc(C(F)(F)F)cc2Cl)CC1 (centres unmarked) [I-11] | +++++ (very good action = 90% surviving on the 6th day p.i.) | > 80 | good to very good action | better than the compounds (C) and (D) | – | –
10 | – | – | – | – | – | N#CC1(C(O)(Cn2cncn2)c2ccccc2Cl)CC1 (centres unmarked) [I-13] | ++++ (good action = 80% surviving on the 6th day p.i.) | > 80 | good to very good action | better than the compounds (C) and (D) | – | –
11 | 16 (≈ 52.2 µM) | 2 (≈ 6.52 µM) | < 1 | 4 (≈ 13 µM) | 4 (≈ 13 µM) | N#CC1(C(O)(Cn2cncn2)c2ccc(Cl)cc2F)CC1 (centres unmarked) [I-14] | +++++ (very good action = 90% surviving on the 6th day p.i.) | > 80 | good to very good action | better than the compounds (C) and (D) | – | better activity
12 | – | – | – | – | – | N#CC1(C(O)(Cn2cncn2)c2c(F)cccc2F)CC1 (centres unmarked) [I-15] | +++++ (very good action = 90% surviving on the 6th day p.i.) | > 80 | good to very good action | better than the compounds (C) and (D) | – | –
13 | 32 (≈ 99 µM) | 16 (≈ 49.5 µM) | < 1 | 2 (≈ 6.19 µM) | < 1 | N#CC1(C(O)(Cn2cncn2)c2ccc(Cl)cc2Cl)CC1 (centres unmarked) [I-16] | +++++ (very good action = 90% surviving on the 6th day p.i.) | > 80 | good to very good action | better than the compounds (C) and (D) | – | better activity
